# Laboratory results as given in US20080004180A1, “Novel Herbicides Based on Substituted Thien-3-Yl-Sulphonylamino(Thio) Carbonyl-Triazolin(Thi)Ones and 4-Hppd-Inhibitors” (Bayer Cropscience AG, priority 2004, published 2008).
# Assays:
# Type in all cases: in vivo
# Alopecurus myosuroides = assay: Herbicidal action against Alopecurus myosuroides, single ingredients and combinations, with Colby expected action
# Excerpt: (§1) A synergistic effect is present in the case of herbicides whenever the herbicidal action of the active ingredient combination is greater than that of the individual active ingredients applied.
# (§2) The anticipated action for a given combination of two herbicides can be calculated as follows (cf. COLBY, S. R.: “Calculating synergistic and antagonistic responses of herbicide combinations”, Weeds 15, pages 20-22, 1967):
# (§3) If • X=% damage by herbicide A (active ingredient of formula I) at p kg/ha application rate • and • Y=% damage by herbicide B (active ingredient of Formula II) at q kg/ha application rate • and • E=the expected damage of the herbicides A and B at p and q kg/ha application rate, • then E=X+Y−(X*Y/100).
# Amaranthus rudis = assay: Herbicidal action against Amaranthus rudis, single ingredients and combinations, with Colby expected action
# Excerpt: as §1, §2, §3
# Galium aparine = assay: Herbicidal action against Galium aparine, single ingredients and combinations, with Colby expected action; conditions: Table A-3 (first); application rate 3.75 g a.i./ha
# Excerpt: as §1, §2, §3
smiles,measurement,setting,value
CS(=O)(=O)c1ccc(C(=O)C2C(=O)CCCC2=O)c(Cl)c1COCC1CCCO1 (centres unmarked) [Compound (B.7)],Action against Alopecurus myosuroides (%),"Alopecurus myosuroides; Table A-1, application rate 3.75 g a.i./ha",0%
same,Action against Alopecurus myosuroides (%),"Alopecurus myosuroides; Table A-3 (second), application rate 7.5 g a.i./ha",0%
same,Action against Amaranthus rudis (%),"Amaranthus rudis; Table A-2, application rate 3.75 g a.i./ha",35%
same,Action against Amaranthus rudis (%),"Amaranthus rudis; Table A-4, application rate 7.5 g a.i./ha",0%
same,Action against Galium aparine (%),Galium aparine,0%
